# Experimental data from patent publication US8791067B2, “Method for treating malaria” (Morehouse School of Medicine, priority 2012, dated 2014).
# Key:
# Type in all cases: cell-based
# STAT3 = STAT3 activation (pSTAT3) in HEME-treated mouse brain endothelial cell line CRL2581; conditions: CRL2581 cells; for pSTAT3 level: FIG. 6B, 6C, 6G
# Text: (§1) FIGS. 6D and 6E show protein expression of CXCL10 relative to actin in untreated control cells (D, E) and in cells treated with siSTAT3 (D), HEME (D, E), siSTAT3+HEME (D), AG490 (E) or AG490+HEME (E).
# (§2) High level of free HEME produced during malaria infection causes inflammation that damages host vascular endothelium and is a major contributor to pathogenesis of severe malaria. To determine how HEME stimulates HO-1, CXCL10 and STAT3 signaling pathways in vitro, mouse brain endothelial cell line CRL2581 was treated with HEME and the effects of HEME on expression of HO-1, CXCL10 and STAT3 activation was assessed. […] When pSTAT3 was reduced by short interfering STAT3 (siSTAT3) (FIG. 6B) or pharmacological inhibitor of Jak, AG490 (FIG. 6C), HO-1 protein expression was inhibited correspondingly.
# HO-1 = HO-1 expression in mouse brain endothelial cell line CRL2581; conditions: CRL2581 cells; for expression of HO-1 mRNA and protein: data not shown
# Text: as §1, §2
# CXCL10 = CXCL10 expression and promoter activity in mouse brain endothelial cell line CRL2581; conditions: CRL2581 cells
# Text: as §1, §2
# [1] = test system: Human brain microvascular endothelial cells (HBVEC); assay: HEME-induced cell death of HBVEC by MTT assay; conditions: HEME+AG490 (50 μmol/l) for 24 h, FIG. 7
# Description: Human brain microvascular endothelial cells (HBVEC) were treated with HEME or with HEME plus AG490 and monitored for cell death progression by MTT assay.
# Cell death progression in HBVEC cultured after treatment with HEME or HEME+AG490 (50 μmol/l) for 24 h as assayed by MTT assay (*P<0.05, n=3 triplicate experiments). The curves correspond to 3 experiments run in parallel. In all the samples, the same concentration of vehicle (DMSO, 0.1%) was used.
# [2] = test system: JAK/STAT3 signaling pathway; assay: Human JAK/STAT signaling pathway real time RT^2 Profile PCR arrays in HBVEC; conditions: HBVEC treated with 20 μM HEME vs vehicle; FIG. 8
# Description: Target genes of JAK/STAT3 signaling pathway upon HEME treatment was further assessed using real time RT^2 Profile PCR arrays (Qiagen, PAHS-039A). The results shown in FIG. 7 are expressed as the fold changes in expression obtained by comparing HBVEC treated with 20 μM HEME or with vehicle as control. […] The up regulated genes include STAT-induced gene matrix metallopeptidase 3 (MMP3), apoptosis-related gene CCAAT/enhancer binding protein (C/EBPb), Fc fragment of IgG, high affinity Ia, receptor (FCGR1A), Jun B proto-oncogene (JUNB), nuclear factor of kappa light polypeptide gene enhancer in B-cells 1 (NFκB), suppressor of cytokine signaling (SOCS3), SOCS4 and signal transducer and activator of transcription 4 (STAT4).
compound,measurement,setting,value
"N#C/C(=C\c1ccc(O)c(O)c1)C(=O)NCc1ccccc1 [AG490, tyrphostin AG490]",pSTAT3 level,STAT3,reduced
same,HO-1 protein expression,"HO-1; HEME-induced, pSTAT3 reduced, FIG. 6B, 6C",inhibited
same,expression of CXCL10,"CXCL10; protein relative to actin, FIG. 6D, 6E",reduced expression
same,HEME-induced apoptosis / cell death in HBVEC,[1],can rescue the HEME-induced apoptosis
"C=CC1=C(C)c2cc3[n-]c(cc4nc(cc5[n-]c(cc1n2)c(C)c5CCC(=O)[O-])C(CCC(=O)[O-])=C4C)c(C)c3C=C.[Co+2].[H+].[H+] [CoPP, cobalt protoporphyrin]",pSTAT3 level,STAT3,increased
same,expression of HO-1 mRNA and protein,HO-1,significantly up regulated
C=CC1=C(C)c2cc3[n-]c(cc4[n-]c(cc5nc(cc1n2)C(C)=C5C=C)c(C)c4CCC(=O)O)c(CCC(=O)O)c3C.[Fe+2] [HEME],HEME concentration at which pSTAT3 peaked,STAT3; FIG. 6A,5 μM
same,HEME concentration from which pSTAT3 was increased,STAT3; FIG. 6A,1 μM
same,expression of HO-1 mRNA and protein,HO-1,significantly up regulated
same,expression of CXCL10 mRNA,CXCL10,significantly up regulated
same,CXCL10 promoter activity,CXCL10; data not shown,enhances CXCL10 promoter activity in a dose-dependent manner
same,"fold-change of down regulated genes (F2R, OAS1)",[2],greater than 2 fold
same,"fold-change of up regulated genes (MMP3, C/EBPb, FCGR1A, JUNB, NFκB, SOCS3, SOCS4, STAT4)",[2],greater than 2 fold
C=CC1=C(C)c2cc3[n-]c(cc4[n-]c(cc5nc(cc1n2)C(C)=C5C=C)c(C)c4CCC(=O)O)c(CCC(=O)O)c3C.[Zn+2] [ZnPP],pSTAT3 level,STAT3,decreased
same,expression of HO-1 mRNA and protein,HO-1,down regulated
